The values that follow are results of earlier work, collected in patent US20110301091A1, “COMPOSITIONS AND METHODS FOR REDUCING THE SIGNS OF AGING OF THE SKIN” (priority 2008, published 2011).

For data set [1], the system named is skin characteristics. Conditions: in vivo.
Data set [2] deals with photoaged skin. Conditions: topical application.
Data set [3] concerns UV-irradiated human fibroblasts.
Data set [4] concerns laboratory animals.
Data set [5] has as its system photoaging. To be noted: topical application of folic acid and creatine.
For data set [6], the system named is dermal aging. Conditions: animal studies; mechanism of reducing oxidative stress and apoptosis.
The test system of data set [7] is heparan-sulfate PGs (HS-PGs). To be noted: organotypical model of corticosteroid atrophic human skin.
Data set [8] concerns MMP-1. Conditions: human keratinocytes; via ERK and AP-1 inhibition.
In data set [9] the test system is UV-induced ceramide production. To be noted: free radical scavenger.
Data set [10] has as its system wrinkle formation. To be noted: clinical study.
In data set [11] the test system is type I collagen.
The subject of data set [12] is epigenetic patterns.

As for `C[C@]12CC[C@H](O)CC1=CC[C@@H]1[C@@H]2CC[C@]2(C)C(=O)CC[C@@H]12` [Dehydroepiandrosterone (DHEA), Dehydroepiandrosterone], the “effects on skin characteristics” value in data set [1] is “beneficial effects on skin characteristics”.

As to `CCCCCCCC(=O)C(CCCCCC)C(=O)NC(CO)CO` (stereo not drawn) [K6PC-5], the “skin barrier, fibroblast count and function” value in [2] is “improving skin barrier and increasing fibroblast count and function”. Turning to `COc1cc(O)c(C(=O)[C@@H]2[C@H](CC=C(C)C)C(C)=CC[C@H]2c2ccccc2)c(O)c1` [Panduratin A], in data set [3], the “matrix metalloproteinase (MMP) I synthesis” value is “decreased” and the “type I procollagen synthesis” value is listed as “increased”. As to `Oc1ccc(C=Cc2cc(O)cc(O)c2)cc1` [Resveratrol], the aging and lifespan result in [4] was “slow down aging and extend the lifespan”.

Turning to `CN(CC(=O)O)C(=N)N` [creatine], in data set [5], the photoaging result is reported as “improved photoaging”. Turning to `Nc1nc2ncc(CNc3ccc(C(=O)N[C@@H](CCC(=O)O)C(=O)O)cc3)nc2c(=O)[nH]1` [folic acid], in data set [5], the photoaging result is reported as “improved photoaging”. With `COc1ccc2[nH]cc(CCNC(C)=O)c2c1` [melatonin], in data set [6], the dermal aging result is reported as “slow down dermal aging”. As for C-Xyloside, in data set [7], the “expression of heparan-sulfate PGs (HS-PGs)” value is reported as “improved expression of heparan-sulfate PGs”. Triphlorethol-A: in data set [8], the MMP-1 inhibition result was “inhibition of MMP-1”.

Take Vitamin E: in data set [9], the UV-induced ceramide production entry is reported as “inhibited”. On to Ziyuglycoside, for which the wrinkle formation result in [10] is “decrease wrinkle formation”. For the same compound, in [11], the “expression of type I collagen” value is listed as “increased the expression of type I collagen in a dose-dependent manner”. Regarding growth hormone, in data set [6], the dermal aging result is “slow down dermal aging”. For the compound lunasin, in data set [12], the epigenetic patterns result is listed as “modify epigenetic patterns”.
